Assay: xn = mol fraction of the nth substance listed
Settings: 100 kPa

C[n+]1ccn(CCCC#N)c1.O=S(=O)([O-])C(F)(F)F + O=C1CCCO1
electrical conductivity [S/m]
Settings | x1 = 0.1003 | x1 = 0.2001 | x1 = 0.3003 | x1 = 0.3999 | x1 = 0.4999 | x1 = 0.6002 | x1 = 0.7001 | x1 = 0.8002 | x1 = 0.9004 | x1 = 1
288.15 K | 0.725 | 0.798 | – | 0.353 | 0.261 | – | 0.118 | 0.084 | 0.05 | –
293.15 K | 0.834 | 0.906 | 0.623 | 0.434 | 0.318 | 0.232 | 0.156 | 0.11 | – | 0.034
298.15 K | 0.95 | 1.02 | 0.726 | 0.521 | 0.385 | 0.283 | 0.201 | 0.142 | – | 0.048
303.15 K | 1.07 | 1.14 | 0.835 | 0.617 | – | 0.341 | 0.252 | – | – | 0.064
308.15 K | 1.2 | 1.26 | 0.951 | 0.718 | 0.539 | – | 0.309 | 0.221 | 0.153 | –
313.15 K | 1.33 | 1.4 | – | 0.83 | 0.625 | – | – | 0.269 | 0.19 | 0.106
318.15 K | 1.48 | 1.53 | 1.21 | 0.947 | 0.721 | 0.554 | 0.441 | – | – | –
323.15 K | 1.61 | 1.68 | – | 1.07 | 0.821 | 0.642 | 0.513 | – | – | –
328.15 K | 1.76 | 1.83 | 1.49 | 1.2 | 0.927 | 0.733 | 0.592 | 0.449 | 0.333 | 0.205
333.15 K | 1.91 | 1.98 | 1.64 | – | 1.04 | 0.832 | 0.675 | 0.52 | 0.392 | 0.25
338.15 K | 2.07 | 2.14 | – | 1.46 | 1.17 | 0.945 | 0.761 | 0.596 | 0.454 | –
343.15 K | 2.22 | 2.3 | 1.95 | 1.6 | 1.29 | 1.05 | – | 0.677 | 0.519 | 0.355

Source: a compilation of properties of binary mixtures (doi:10.1016/j.molliq.2022.120052)
